Source: ChEMBL document CHEMBL3044649, “Zn(OTf)2-catalyzed three component, one-pot cyclocondensation reaction of some new octahydroquinazolinone derivatives and access their bio-potential” (2012)
≈ marks a conversion by molar mass, not a printed value.

Assays:
Assay type in all cases: functional
[1] = test system: Clostridium tetani; experiment: Antimicrobial activity against Clostridium tetani MTCC 449 after 24 to 48 hr by broth microdilution method
[2] = test system: Salmonella typhi; experiment: Antimicrobial activity against Salmonella enterica subsp. enterica serovar Typhi MTCC 98 after 24 to 48 hr by broth microdilution method
[3] = test system: Vibrio cholerae; experiment: Antimicrobial activity against Vibrio cholerae MTCC 3906 after 24 to 48 hr by broth microdilution method
[4] = test system: Streptococcus pneumoniae; experiment: Antimicrobial activity against Streptococcus pneumoniae MTCC 1936 after 24 to 48 hr by broth microdilution method
[5] = test system: Escherichia coli; experiment: Antimicrobial activity against Escherichia coli MTCC 443 after 24 to 48 hr by broth microdilution method
[6] = test system: Bacillus subtilis; experiment: Antimicrobial activity against Bacillus subtilis MTCC 441 after 24 to 48 hr by broth microdilution method
[7] = test system: Candida albicans; experiment: Antimicrobial activity against Candida albicans MTCC 227 after 24 to 48 hr by broth microdilution method
[8] = test system: Aspergillus fumigatus; experiment: Antimicrobial activity against Aspergillus fumigatus MTCC 3008 after 24 to 48 hr by broth microdilution method

Compound	MIC [1] [mg/L]	MIC [2] [mg/L]	MIC [3] [mg/L]	MIC [4] [mg/L]	MIC [5] [mg/L]	MIC [6] [mg/L]	MIC [7] [mg/L]	MIC [8] [mg/L]
GENTAMICIN	5	5	5	0.5	0.05	1	–	–
CC1(C)CC(=O)C2=C(C1)N(c1ccccc1)C(=S)NC2c1cc2ccccc2[nH]c1=O (centres undefined)	250 (≈ 582 µM)	200 (≈ 466 µM)	500 (≈ 1160 µM)	500 (≈ 1160 µM)	250 (≈ 582 µM)	500 (≈ 1160 µM)	250 (≈ 582 µM)	1000 (≈ 2330 µM)
O=C1NC2=C(C(=O)CCC2)C(c2cc3ccccc3[nH]c2=O)N1 (centres undefined)	100 (≈ 323 µM)	250 (≈ 808 µM)	500 (≈ 1620 µM)	100 (≈ 323 µM)	250 (≈ 808 µM)	200 (≈ 647 µM)	500 (≈ 1620 µM)	> 1000
NYSTATIN	–	–	–	–	–	–	100	100
COC1=CC(=O)C[C@@H](C)[C@]12Oc1c(Cl)c(OC)cc(OC)c1C2=O [GRISEOFULVIN]	–	–	–	–	–	–	500 (≈ 1420 µM)	100 (≈ 283 µM)
CC1(C)CC(=O)C2=C(C1)NC(=S)NC2c1cc2cc(Cl)ccc2[nH]c1=O (centres undefined)	250 (≈ 645 µM)	25 (≈ 64.5 µM)	50 (≈ 129 µM)	50 (≈ 129 µM)	125 (≈ 322 µM)	50 (≈ 129 µM)	500 (≈ 1290 µM)	1000 (≈ 2580 µM)
COc1ccc2[nH]c(=O)c(C3NC(=S)NC4=C3C(=O)CC(C)(C)C4)cc2c1 (centres undefined)	200 (≈ 522 µM)	250 (≈ 652 µM)	200 (≈ 522 µM)	200 (≈ 522 µM)	500 (≈ 1300 µM)	200 (≈ 522 µM)	500 (≈ 1300 µM)	> 1000
Cc1ccc2[nH]c(=O)c(C3NC(=O)NC4=C3C(=O)CCC4)cc2c1 (centres undefined)	200 (≈ 619 µM)	500 (≈ 1550 µM)	200 (≈ 619 µM)	100 (≈ 309 µM)	500 (≈ 1550 µM)	500 (≈ 1550 µM)	1000 (≈ 3090 µM)	1000 (≈ 3090 µM)
O=C1CCCC2=C1C(c1cc3ccccc3[nH]c1=S)NC(=S)N2 (centres undefined)	250 (≈ 732 µM)	200 (≈ 586 µM)	250 (≈ 732 µM)	500 (≈ 1460 µM)	250 (≈ 732 µM)	250 (≈ 732 µM)	250 (≈ 732 µM)	> 1000
CC1(C)CC(=O)C2=C(C1)NC(=O)NC2c1cc2ccccc2[nH]c1=O (centres undefined)	200 (≈ 593 µM)	250 (≈ 741 µM)	250 (≈ 741 µM)	250 (≈ 741 µM)	100 (≈ 296 µM)	500 (≈ 1480 µM)	500 (≈ 1480 µM)	500 (≈ 1480 µM)
O=C1NC2=C(C(=O)CCC2)C(c2cc3cc(Cl)ccc3[nH]c2=O)N1 (centres undefined)	500 (≈ 1450 µM)	250 (≈ 727 µM)	100 (≈ 291 µM)	500 (≈ 1450 µM)	200 (≈ 582 µM)	250 (≈ 727 µM)	1000 (≈ 2910 µM)	1000 (≈ 2910 µM)
CC1(C)CC(=O)C2=C(C1)NC(=O)NC2c1cc2cc(Cl)ccc2[nH]c1=O (centres undefined)	100 (≈ 269 µM)	200 (≈ 538 µM)	500 (≈ 1340 µM)	500 (≈ 1340 µM)	100 (≈ 269 µM)	200 (≈ 538 µM)	500 (≈ 1340 µM)	> 1000
COc1ccc2[nH]c(=O)c(C3NC(=S)NC4=C3C(=O)CCC4)cc2c1 (centres undefined)	200 (≈ 563 µM)	125 (≈ 352 µM)	200 (≈ 563 µM)	200 (≈ 563 µM)	50 (≈ 141 µM)	200 (≈ 563 µM)	500 (≈ 1410 µM)	> 1000
Cc1ccc2[nH]c(=O)c(C3NC(=O)NC4=C3C(=O)CC(C)(C)C4)cc2c1 (centres undefined)	100 (≈ 285 µM)	250 (≈ 711 µM)	1000 (≈ 2850 µM)	100 (≈ 285 µM)	100 (≈ 285 µM)	100 (≈ 285 µM)	500 (≈ 1420 µM)	1000 (≈ 2850 µM)
O=C1CCCC2=C1C(c1cc3cc(Cl)ccc3[nH]c1=O)NC(=S)N2 (centres undefined)	250 (≈ 695 µM)	200 (≈ 556 µM)	250 (≈ 695 µM)	250 (≈ 695 µM)	100 (≈ 278 µM)	250 (≈ 695 µM)	500 (≈ 1390 µM)	1000 (≈ 2780 µM)
CC1(C)S[C@@H]2[C@H](NC(=O)[C@H](N)c3ccccc3)C(=O)N2[C@H]1C(=O)O [AMPICILLIN]	250 (≈ 715 µM)	100 (≈ 286 µM)	100 (≈ 286 µM)	100 (≈ 286 µM)	100 (≈ 286 µM)	250 (≈ 715 µM)	–	–

Compound	MIC [1] [mg/L]	MIC [2] [mg/L]	MIC [3] [mg/L]	MIC [4] [mg/L]	MIC [5] [mg/L]	MIC [6] [mg/L]	MIC [7] [mg/L]	MIC [8] [mg/L]
CC1(C)CC(=O)C2=C(C1)NC(=S)NC2c1cc2ccccc2[nH]c1=O (centres undefined)	500 (≈ 1410 µM)	150 (≈ 424 µM)	500 (≈ 1410 µM)	500 (≈ 1410 µM)	125 (≈ 354 µM)	500 (≈ 1410 µM)	500 (≈ 1410 µM)	500 (≈ 1410 µM)
CCn1cc(C(=O)O)c(=O)c2cc(F)c(N3CCNCC3)cc21 [NORFLOXACIN]	50 (≈ 157 µM)	10 (≈ 31.3 µM)	10 (≈ 31.3 µM)	10 (≈ 31.3 µM)	10 (≈ 31.3 µM)	100 (≈ 313 µM)	–	–
COc1ccc2[nH]c(=O)c(C3NC(=O)NC4=C3C(=O)CC(C)(C)C4)cc2c1 (centres undefined)	100 (≈ 272 µM)	150 (≈ 408 µM)	50 (≈ 136 µM)	250 (≈ 680 µM)	100 (≈ 272 µM)	250 (≈ 680 µM)	500 (≈ 1360 µM)	1000 (≈ 2720 µM)
Cc1ccc2[nH]c(=O)c(C3NC(=S)N(c4ccccc4)C4=C3C(=O)CCC4)cc2c1 (centres undefined)	250 (≈ 602 µM)	250 (≈ 602 µM)	500 (≈ 1200 µM)	500 (≈ 1200 µM)	500 (≈ 1200 µM)	500 (≈ 1200 µM)	1000 (≈ 2410 µM)	500 (≈ 1200 µM)
Cc1ccc2[nH]c(=O)c(C3NC(=S)N(c4ccccc4)C4=C3C(=O)CC(C)(C)C4)cc2c1 (centres undefined)	250 (≈ 564 µM)	500 (≈ 1130 µM)	250 (≈ 564 µM)	1000 (≈ 2250 µM)	1000 (≈ 2250 µM)	250 (≈ 564 µM)	1000 (≈ 2250 µM)	500 (≈ 1130 µM)
CC1(C)CC(=O)C2=C(C1)NC(=S)NC2c1cc2ccccc2[nH]c1=S (centres undefined)	200 (≈ 541 µM)	100 (≈ 271 µM)	250 (≈ 677 µM)	500 (≈ 1350 µM)	100 (≈ 271 µM)	250 (≈ 677 µM)	250 (≈ 677 µM)	500 (≈ 1350 µM)
O=C(N[C@H](CO)[C@H](O)c1ccc([N+](=O)[O-])cc1)C(Cl)Cl [CHLORAMPHENICOL]	50 (≈ 155 µM)	50 (≈ 155 µM)	50 (≈ 155 µM)	50 (≈ 155 µM)	50 (≈ 155 µM)	50 (≈ 155 µM)	–	–
Cc1ccc2[nH]c(=O)c(C3NC(=S)NC4=C3C(=O)CCC4)cc2c1 (centres undefined)	500 (≈ 1470 µM)	500 (≈ 1470 µM)	500 (≈ 1470 µM)	500 (≈ 1470 µM)	500 (≈ 1470 µM)	500 (≈ 1470 µM)	200 (≈ 589 µM)	500 (≈ 1470 µM)
O=C1NC2=C(C(=O)CCC2)C(c2cc3ccccc3[nH]c2=S)N1 (centres undefined)	500 (≈ 1540 µM)	200 (≈ 615 µM)	500 (≈ 1540 µM)	500 (≈ 1540 µM)	500 (≈ 1540 µM)	500 (≈ 1540 µM)	1000 (≈ 3070 µM)	500 (≈ 1540 µM)
O=C(O)c1cn(C2CC2)c2cc(N3CCNCC3)c(F)cc2c1=O [CIPROFLOXACIN]	–	25 (≈ 75.4 µM)	25 (≈ 75.4 µM)	50 (≈ 151 µM)	25 (≈ 75.4 µM)	–	–	–
COc1ccc2[nH]c(=O)c(C3NC(=O)NC4=C3C(=O)CCC4)cc2c1 (centres undefined)	500 (≈ 1470 µM)	250 (≈ 737 µM)	500 (≈ 1470 µM)	250 (≈ 737 µM)	100 (≈ 295 µM)	250 (≈ 737 µM)	500 (≈ 1470 µM)	1000 (≈ 2950 µM)
CC1(C)CC(=O)C2=C(C1)NC(=O)NC2c1cc2ccccc2[nH]c1=S (centres undefined)	500 (≈ 1410 µM)	500 (≈ 1410 µM)	200 (≈ 566 µM)	250 (≈ 707 µM)	500 (≈ 1410 µM)	500 (≈ 1410 µM)	100 (≈ 283 µM)	100 (≈ 283 µM)
Cc1ccc2[nH]c(=O)c(C3NC(=S)NC4=C3C(=O)CC(C)(C)C4)cc2c1 (centres undefined)	100 (≈ 272 µM)	150 (≈ 408 µM)	100 (≈ 272 µM)	100 (≈ 272 µM)	250 (≈ 680 µM)	100 (≈ 272 µM)	> 1000	> 1000
O=C1CCCC2=C1C(c1cc3ccccc3[nH]c1=O)NC(=S)N2 (centres undefined)	200 (≈ 615 µM)	500 (≈ 1540 µM)	500 (≈ 1540 µM)	200 (≈ 615 µM)	100 (≈ 307 µM)	200 (≈ 615 µM)	100 (≈ 307 µM)	200 (≈ 615 µM)
O=C1CCCC2=C1C(c1cc3ccccc3[nH]c1=O)NC(=S)N2c1ccccc1 (centres undefined)	100 (≈ 249 µM)	100 (≈ 249 µM)	200 (≈ 498 µM)	150 (≈ 374 µM)	150 (≈ 374 µM)	250 (≈ 623 µM)	500 (≈ 1250 µM)	250 (≈ 623 µM)
